The target in one assay is T1, Acetylcholinesterase (Rattus norvegicus, UniProt P37136).
T1 sequence (P37136 whole entry): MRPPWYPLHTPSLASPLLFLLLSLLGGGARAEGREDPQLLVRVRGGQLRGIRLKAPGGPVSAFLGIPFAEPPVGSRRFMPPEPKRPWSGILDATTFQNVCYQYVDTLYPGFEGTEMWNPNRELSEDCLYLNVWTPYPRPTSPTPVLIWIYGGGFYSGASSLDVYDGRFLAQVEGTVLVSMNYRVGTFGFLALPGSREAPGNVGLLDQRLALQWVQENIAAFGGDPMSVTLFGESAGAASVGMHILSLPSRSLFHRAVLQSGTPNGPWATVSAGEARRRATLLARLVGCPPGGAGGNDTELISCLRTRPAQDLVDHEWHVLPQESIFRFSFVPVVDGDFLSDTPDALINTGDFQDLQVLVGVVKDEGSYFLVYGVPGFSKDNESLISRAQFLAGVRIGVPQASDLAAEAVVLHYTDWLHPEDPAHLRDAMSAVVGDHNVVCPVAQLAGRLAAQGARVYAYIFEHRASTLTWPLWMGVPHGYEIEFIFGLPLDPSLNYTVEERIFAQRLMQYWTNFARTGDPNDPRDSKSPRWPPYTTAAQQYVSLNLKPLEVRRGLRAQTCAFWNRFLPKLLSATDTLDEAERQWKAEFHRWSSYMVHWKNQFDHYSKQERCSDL

The nature of a further assay: tissue or blood. The conditions noted are these: Rattus norvegicus, Sprague-Dawley, Serum.
The species entered for the next assay is Rattus norvegicus. In words: Inhibition of BuChE in Sprague-Dawley rat serum at 1 mM by Ellman's method. The format is cell-free.

Each structure is given as a SMILES string. The source made the active and inactive calls. The calls are words filed in the database; no cut-off is given here.

What is called IC50 is the concentration that inhibits the measured activity by half.

Description for Acetylcholinesterase: Inhibition of AChE in Sprague-Dawley rat cortices using acetylthiocholine iodide as substrate by Ellman's method
Description for tissue or blood: Inhibition of BuChE in Sprague-Dawley rat serum by Ellman's method

For `COc1cc2c(cc1OC)C(=O)C(CCCCCCCCCN[C@H]1CCCc3[nH]c(=O)ccc31)C2` (mixture of isomers), the half-maximal inhibitory concentration (IC50) worked out at 2.6 µM on Acetylcholinesterase and 678 µM in “tissue or blood”.

On to `COc1cc2c(cc1OC)C(=O)C(CCCCCN[C@H]1CCCc3[nH]c(=O)ccc31)C2` (mixture of isomers), for which the inhibition result in the assay filed under Rattus norvegicus was “inactive”. The compound also came in with an IC50 against Acetylcholinesterase of 0.187 µM.

In the case of `COc1cc2c(cc1OC)C(=O)C(CCCCCCN[C@H]1CCCc3[nH]c(=O)ccc31)C2` (mixture of isomers), the inhibition entry in the assay listed under Rattus norvegicus is “inactive”. This compound also gave an IC50 on Acetylcholinesterase of 0.037 µM.

With `COc1ccc(C(=O)NCCCCCN[C@H]2CCCc3[nH]c(=O)ccc32)cc1OC`, the IC50 is 12 µM at Acetylcholinesterase and 33 µM in the assay “tissue or blood”.

Turning to `COc1ccc(C(=O)NCCCN[C@H]2CCCc3[nH]c(=O)ccc32)cc1OC`, the IC50 is 88 µM against Acetylcholinesterase and 139 µM in the assay “tissue or blood”.

Consider `COc1ccc(OCCCCCN[C@H]2CCCc3[nH]c(=O)ccc32)cc1OC`, for which the IC50 was determined as 0.59 µM at Acetylcholinesterase and 42 µM in the assay “tissue or blood”.

In the case of `COc1cc2c(cc1OC)C(=O)C(CCCCCCCN[C@H]1CCCc3[nH]c(=O)ccc31)C2` (mixture of isomers), the results for the concentration for half-maximal inhibition (IC50) at Acetylcholinesterase and in “tissue or blood” were 1.86 µM and 413 µM, respectively.

For the compound `COc1ccc(OCCCCCCN[C@H]2CCCc3[nH]c(=O)ccc32)cc1OC`, the IC50 against Acetylcholinesterase came to 3.95 µM; in “tissue or blood”, 17.7 µM.

Regarding `COc1ccc(C(=O)OCCCN[C@H]2CCCc3[nH]c(=O)ccc32)cc1OC`, the IC50 against Acetylcholinesterase amounted to 162 µM; in “tissue or blood”, 860 µM.

As for `COc1cc2c(cc1OC)C(=O)C(CCCN[C@H]1CCCc3[nH]c(=O)ccc31)C2` (mixture of isomers), in the assay listed under Rattus norvegicus, the inhibition entry is “inactive”. On Acetylcholinesterase, this compound showed an IC50 of 41 µM.

On to `COc1cc2c(cc1OC)C(=O)C(CCCCN[C@@H]1CCCc3[nH]c(=O)ccc31)C2` (mixture of isomers), for which the inhibition result in the assay filed under Rattus norvegicus was “inactive”. Moreover, it took 0.53 µM to reach half-maximal inhibition at Acetylcholinesterase (IC50).

As to `C/C=C1\[C@H]2C=C(C)C[C@]1(N)c1ccc(=O)[nH]c1C2` [HUPERZINE A], the IC50 against Acetylcholinesterase came out at 0.065 µM; in “tissue or blood”, 74 µM.

`COc1ccc(C(=O)OCCCCCCCCCN[C@H]2CCCc3[nH]c(=O)ccc32)cc1OC`: the results for the IC50 against Acetylcholinesterase and in “tissue or blood” were 9.67 µM and 308 µM, respectively.

As to `COc1ccc(C(=O)OCCCCCCCN[C@H]2CCCc3[nH]c(=O)ccc32)cc1OC`, the IC50 against Acetylcholinesterase stood at 8.2 µM; in the assay “tissue or blood”, 194 µM.

Regarding `COc1cc2c(cc1OC)C(=O)C(CCCCN[C@H]1CCCc3[nH]c(=O)ccc31)C2` (mixture of isomers), the inhibition entry in the assay listed under Rattus norvegicus was “inactive”. This compound came in with a 50% inhibitory concentration (IC50) against Acetylcholinesterase of 0.009 µM.

`COc1ccc(C(=O)OCCCCCN[C@H]2CCCc3[nH]c(=O)ccc32)cc1OC`: the half-maximal inhibitory concentration (IC50) was 7.2 µM against Acetylcholinesterase and 460 µM in “tissue or blood”.

With `COc1ccc(C(=O)OCCCCN[C@H]2CCCc3[nH]c(=O)ccc32)cc1OC`, the values for the IC50 against Acetylcholinesterase and in the assay “tissue or blood” were 4.1 µM and 15 µM, respectively.

Source of the values: ChEMBL document CHEMBL2321689, “Design, synthesis and evaluation of novel heterodimers of donepezil and huperzine fragments as acetylcholinesterase inhibitors” (Bioorg Med Chem, 2013).
